The record followed here is patent US20100234377A1 (priority 2007, published 2010).

For orientation: IC50 means the concentration needed to halve the response being measured.

T1 sequence (O60760 whole entry): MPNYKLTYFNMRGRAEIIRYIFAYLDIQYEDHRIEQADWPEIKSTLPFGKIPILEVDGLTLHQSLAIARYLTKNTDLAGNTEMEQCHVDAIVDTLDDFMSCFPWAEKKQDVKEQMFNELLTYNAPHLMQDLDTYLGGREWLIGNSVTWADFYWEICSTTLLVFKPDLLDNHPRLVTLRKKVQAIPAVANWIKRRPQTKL

This assay concerns the target T1, human Prostaglandin D Synthase (GST2) (Homo sapiens, UniProt O60760).
T1 construct: the open reading frame of human Prostaglandin D Synthase was amplified from cDNA; made in house; host or cells: E. coli TOP10F'
The assay is described as follows: Homogeneous biochemical assay of human Prostaglandin D Synthase (GST2) based on its glutathion-S-transferase activity (GSH conjugation to monochlorobimane, fluorescence). To be noted: given beside the compound name in Examples 1 to 167; read-out: Potency Range (GST2 IC50). The essentials:
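N-His-tagged human PGD synthase from E. coli, assayed via its GST activity: GSH conjugation to monochlorobimane in 50 mM MES/KOH pH 6.1, 0.7 mM GSH, 2 mM MgCl2. Compounds at final picomolar to triple-digit micromolar concentrations.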
`Nc1ccc(NC(=O)N2CCN(C(=O)c3cccc(F)c3)CC2)cc1` [Compound 112, 4-(3-Fluoro-benzoyl)-piperazine-1-carboxylic acid (4-amino-phenyl)-amide]: the IC50 was 101 to 1000 nM. To `Nc1ccc(NC(=O)N2CCN(C(=O)c3cc(F)ccc3F)CC2)cc1` [Compound 113, 4-(2,5-Difluoro-benzoyl)-piperazine-1-carboxylic acid (4-amino-phenyl)-amide] belongs 101 to 1000 nM; to `O=C(Nc1ccc(NC(=O)N2CCN(C(=O)c3cccc(F)c3)CC2)cc1)c1ccccn1` [Compound 114, 4-(3-Fluoro-benzoyl)-piperazine-1-carboxylic acid {4-[(pyridine-2-carbonyl)-amino]-phenyl}-amide], 11 to 100 nM. With `O=C(Nc1ccc(NC(=O)N2CCN(C(=O)c3cccc(F)c3)CC2)cc1)c1cccc[n+]1[O-]` [Compound 115, 4-(3-Fluoro-benzoyl)-piperazine-1-carboxylic acid {4-[(1-oxy-pyridine-2-carbonyl)-amino]-phenyl}-amide] the figure was 11 to 100 nM; with `O=C(Nc1ccc(NC(=O)N2CCN(C(=O)c3cccc(F)c3)CC2)cc1)c1ccc[n+]([O-])c1` [Compound 116, 4-(3-Fluoro-benzoyl)-piperazine-1-carboxylic acid {4-[(1-oxy-pyridine-3-carbonyl)-amino]-phenyl}-amide], 11 to 100 nM.

For `O=C(Nc1ccc(NC(=O)N2CCN(C(=O)c3cccc(F)c3)CC2)cc1)c1ccc(F)nc1` [Compound 117, 4-(3-Fluoro-benzoyl)-piperazine-1-carboxylic acid {4-[(6-fluoro-pyridine-3-carbonyl)-amino]-phenyl}-amide], the IC50 was in the range of 101 to 1000 nM. With `O=C(Nc1ccc(NC(=O)N2CCN(C(=O)c3cc(F)ccc3F)CC2)cc1)c1cccc[n+]1[O-]` [Compound 118, 4-(2,5-Difluoro-benzoyl)-piperazine-1-carboxylic acid {4-[(1-oxy-pyridine-2-carbonyl)-amino]-phenyl}-amide] the figure was 11 to 100 nM; with `O=C(Nc1ccc(NC(=O)N2CCN(C(=O)c3cc(F)ccc3F)CC2)cc1)c1ccc[n+]([O-])c1` [Compound 119, 4-(2,5-Difluoro-benzoyl)-piperazine-1-carboxylic acid {4-[(1-oxy-pyridine-3-carbonyl)-amino]-phenyl}-amide], 11 to 100 nM; with `O=C(Nc1ccc(NC(=O)N2CCN(C(=O)c3cccc(F)c3)CC2)cc1)c1ccc(F)cc1` [Compound 120, 4-(3-Fluoro-benzoyl)-piperazine-1-carboxylic acid [4-(4-fluoro-benzoylamino)-phenyl]-amide], 11 to 100 nM. As for `CC(C)C(=O)Nc1ccc(NC(=O)N2CCN(C(=O)c3cccc(F)c3)CC2)cc1` [Compound 121, 4-(3-Fluoro-benzoyl)-piperazine-1-carboxylic acid (4-isobutyrylamino-phenyl)-amide], the IC50 is 101 to 1000 nM.

As to `O=C(Nc1ccc(NC(=O)N2CCN(C(=O)c3cccc(F)c3)CC2)cc1)c1cccnc1` [Compound 122, 4-(3-Fluoro-benzoyl)-piperazine-1-carboxylic acid {4-[(pyridine-3-carbonyl)-amino]-phenyl}-amide], the IC50 is 101 to 1000 nM. To `O=C(Nc1ccc(NC(=O)N2CCN(C(=O)c3cccc(F)c3)CC2)cc1)C1CCOCC1` [Compound 124, 4-(3-Fluoro-benzoyl)-piperazine-1-carboxylic acid {4-[(tetrahydro-pyran-4-carbonyl)-amino]-phenyl}-amide] belongs 101 to 1000 nM. To `O=C(Nc1ccc(NS(=O)(=O)c2ccccc2)cc1)N1CCN(C(=O)c2cccc(F)c2)CC1` [Compound 125, 4-(3-Fluoro-benzoyl)-piperazine-1-carboxylic acid (4-benzenesulfonylamino-phenyl)-amide] belongs 11 to 100 nM; to `O=C(Nc1ccc(NS(=O)(=O)C2CC2)cc1)N1CCN(C(=O)c2cccc(F)c2)CC1` [Compound 127, 4-(3-Fluoro-benzoyl)-piperazine-1-carboxylic acid (4-cyclopropanesulfonylamino-phenyl)-amide], 11 to 100 nM.

Consider `O=C(Nc1ccc(NS(=O)(=O)c2ccc(F)cc2)cc1)N1CCN(C(=O)c2cccc(F)c2)CC1` [Compound 128, 4-(3-Fluoro-benzoyl)-piperazine-1-carboxylic acid [4-(4-fluoro-benzenesulfonylamino)-phenyl]-amide], for which the IC50 lay within 11 to 100 nM.

Regarding `CS(=O)(=O)N(c1ccc(NC(=O)N2CCN(C(=O)c3cccc(F)c3)CC2)cc1)S(C)(=O)=O` [Compound 129, N-{4-[bis(methylsulfonyl)amino]phenyl}-4-(3-fluorobenzoyl)piperazine-1-carboxamide], the IC50 was in the range of 11 to 100 nM.

For `O=C(Nc1cccc(NS(=O)(=O)c2ccc(F)cc2)c1)N1CCN(C(=O)c2cccc(F)c2)CC1` [Compound 130, 4-(3-Fluoro-benzoyl)-piperazine-1-carboxylic acid [3-(4-fluoro-benzenesulfonylamino)-phenyl]-amide], the IC50 was 101 to 1000 nM.

For `O=C(Nc1cccc(NS(=O)(=O)C2CC2)c1)N1CCN(C(=O)c2cccc(F)c2)CC1` [Compound 131, 4-(3-Fluoro-benzoyl)-piperazine-1-carboxylic acid (3-cyclopropanesulfonylamino-phenyl)-amide], the IC50 was 101 to 1000 nM. To `O=C(Nc1ccc(NS(=O)(=O)C2CC2)cc1)N1CCN(C(=O)c2cc(F)ccc2F)CC1` [Compound 132, 4-(2,5-Difluoro-benzoyl)-piperazine-1-carboxylic acid (4-cyclopropanesulfonylamino-phenyl)-amide] belongs 101 to 1000 nM; to `CS(=O)(=O)Nc1ccc(NC(=O)N2CCN(C(=O)c3cc(F)ccc3F)CC2)cc1` [Compound 133, 4-(2,5-Difluoro-benzoyl)-piperazine-1-carboxylic acid (4-methanesulfonylamino-phenyl)-amide], 101 to 1000 nM. Regarding `O=C(Nc1ccc([N+](=O)[O-])c(F)c1)N1CCN(C(=O)c2cccc(F)c2)CC1` [Compound 134, 4-(3-Fluoro-benzoyl)-piperazine-1-carboxylic acid (3-fluoro-4-nitro-phenyl)-amide], the IC50 was in the range of 101 to 1000 nM.

In the case of `O=C(Nc1ccc(-c2nnn[nH]2)cc1)N1CCN(C(=O)c2cccc(F)c2)CC1` [Compound 135, 4-(3-Fluoro-benzoyl)-piperazine-1-carboxylic acid [4-(1H-tetrazol-5-yl)-phenyl]-amide], the IC50 lay in the range of 11 to 100 nM. With `Nc1ccc2nc(NC(=O)N3CCN(C(=O)c4cccc(F)c4)CC3)sc2c1` [Compound 136, 4-(3-Fluoro-benzoyl)-piperazine-1-carboxylic acid (6-amino-benzothiazol-2-yl)-amide] the figure was 11 to 100 nM; with `O=C(Nc1nc2ccc(NS(=O)(=O)C3CC3)cc2s1)N1CCN(C(=O)c2cccc(F)c2)CC1` [Compound 137, 4-(3-Fluoro-benzoyl)-piperazine-1-carboxylic acid (6-cyclopropanesulfonylamino-benzothiazol-2-yl)-amide], 11 to 100 nM. With `O=C(O)c1ccc2nc(NC(=O)N3CCN(C(=O)c4cccc(F)c4)CC3)sc2c1` [Compound 138, 2-{[4-(3-Fluoro-benzoyl)-piperazine-1-carbonyl]-amino}-benzothiazole-6-carboxylic acid] the figure was 11 to 100 nM; with `O=C(Nc1nc2ccc(C(=O)N3CCOCC3)cc2s1)N1CCN(C(=O)c2cccc(F)c2)CC1` [Compound 139, 4-(3-Fluoro-benzoyl)-piperazine-1-carboxylic acid [6-(morpholine-4-carbonyl)-benzothiazol-2-yl]-amide], 11 to 100 nM. In the case of `O=C(Nc1ccc2nc(NC(=O)N3CCN(C(=O)c4cccc(F)c4)CC3)sc2c1)c1ccccn1` [Compound 140, 4-(3-Fluoro-benzoyl)-piperazine-1-carboxylic acid {6-[(pyridine-2-carbonyl)-amino]-benzothiazol-2-yl}-amide], the IC50 fell in the range of 11 to 100 nM. For the compound `NC(=O)c1ccc2nc(NC(=O)N3CCN(C(=O)c4cccc(F)c4)CC3)sc2c1` [Compound 141, 2-{[4-(3-Fluoro-benzoyl)-piperazine-1-carbonyl]-amino}-benzothiazole-6-carboxylic acid amide], the IC50 lay in the range of 11 to 100 nM.

Take `CC(C)c1noc(-c2ccc(NC(=O)N3CCN(C(=O)c4cccc(F)c4)CC3)cc2)n1` [Compound 142, 4-(3-Fluoro-benzoyl)-piperazine-1-carboxylic acid [4-(3-isopropyl-[1,2,4]oxadiazol-5-yl)-phenyl]-amide]: the IC50 was 101 to 1000 nM. For the compound `O=C(Nc1ccc(-n2cccn2)c(F)c1)N1CCN(C(=O)c2cccc(F)c2)CC1` [Compound 143], the IC50 fell in the range of 101 to 1000 nM. With `O=C(Nc1ccc(-n2ccnc2)c(F)c1)N1CCN(C(=O)c2cccc(F)c2)CC1` [Compound 144] the figure was 101 to 1000 nM; with `O=C(Nc1ccc(-n2cncn2)c(F)c1)N1CCN(C(=O)c2cccc(F)c2)CC1` [Compound 145], 101 to 1000 nM; with `O=C(Nc1ccc(N2CCN(c3ccccn3)CC2)c(F)c1)N1CCN(C(=O)c2cccc(F)c2)CC1` [Compound 146, 4-(3-Fluoro-benzoyl)-piperazine-1-carboxylic acid [3-fluoro-4-(4-pyridin-2-yl-piperazin-1-yl)-phenyl]-amide], 11 to 100 nM. With `O=C(Nc1ccc(-c2cccnc2)c(F)c1)N1CCN(C(=O)c2cccc(F)c2)CC1` [Compound 147, 4-(3-Fluoro-benzoyl)-piperazine-1-carboxylic acid (3-fluoro-4-pyridin-3-yl-phenyl)-amide] the figure was 11 to 100 nM. To `O=C(Nc1ccc(C(F)(F)F)cc1)N1CCN(C(=O)c2cc(F)ccc2F)CC1` [Compound 148, 4-(2,5-Difluoro-benzoyl)-piperazine-1-carboxylic acid (4-trifluoromethyl-phenyl)-amide] belongs 101 to 1000 nM. Turning to `O=C(Nc1ccc(C(F)(F)F)cc1)N1CCN(C(=O)c2cccc(F)c2)CC1` [Compound 149, 4-(3-Fluoro-benzoyl)-piperazine-1-carboxylic acid (4-trifluoromethyl-phenyl)-amide], the IC50 lay in the range of 101 to 1000 nM.
